This is an account of results in patent US20110151529A1, “METHODS AND PROCESSES FOR PRODUCING ORGANIC ACIDS” (THE OHIO STATE UNIVERSITY, priority 2008, published 2011).

Assay [1] concerns C. tyrobutyricum original culture (wild type). The experiment in a line: Butyrate inhibition of cell growth, noncompetitive product inhibition model, original culture. It is filed as cell-based, Clostridium tyrobutyricum.
The subject of assay [2] is P. acidipropionici adapted ACK-Tet from FBB. As to conditions: at 20 g/L propionic acid.
Assay [3] relates to P. acidipropionici wild type. The experiment in a line: Propionic acid inhibition of specific growth rate, free-cell culture, wild type. Conditions: at 20 g/L propionic acid.

Take `CCCC(=O)O` [butyric acid]: the “butyrate concentration beyond which the culture lost its ability to grow” value in assay [1] is reported as greater than 20 g/L.
As for `CCC(=O)O` [propionic acid], in assay [2], the “specific growth rate retained relative to 0 g/L of propionic acid” value is “about 75%”. In assay [3], the growth rate lost entry is given as “more than 80%”.
